These results are taken from article PMC11579541, “In vitro, in vivo, and in silico approaches for evaluating the preclinical DMPK profiles of ammoxetine, a novel chiral serotonin and norepinephrine reuptake inhibitor” (Frontiers in Pharmacology, 2024).

Series [1] deals with T1, CYP 2C19 (Homo sapiens, UniProt P33261). The series can be described thus: Phenotyping with recombinant human CYP 2C19. The format is in vitro ADME. Set-up: purchased BD (Woburn, USA). To be noted: 5 μmol/L, 25 pmol/mL CYP, 1 h. Here is the method: Ammoxetine (final concentration 5 μmol/L) was incubated with recombinant human CYP 3A4, CYP 1A2, CYP 2C9, CYP 2C19, and CYP 2D6 (final concentration 25 pmol/mL) in a 5 mmol/L K2HPO4 buffer at pH 7.4. The incubations were performed in quintuplicate. NADPH (final concentration 1 mmol/L) was added to initiate the incubation process. The mixture was then incubated at 37°C for 1 h. To stop the reaction, 200 μL of ice-cold acetonitrile/methanol (1:1, v/v) containing 500 ng/mL of L-phencynonate (IS) was added. The samples were vortexed for 2 min and centrifuged at 13,800×g and 4°C for 10 min. The supernatants obtained were analyzed using an LC-MS-MS method. To establish appropriate controls, zero-time controls and blank controls in the absence of NADPH were set up in parallel.

Another series concerns the target CYP 2D6 (Homo sapiens, UniProt P10635). The series can be described thus: CYP inhibition, cocktail-substrate method in HLM. The format is in vitro ADME. Set-up: 0.5 mg/mL HLM, 1 mmol/L NADPH, and a cocktail of 10 probe substrates for 9 CYP isoforms; tissue BD (Woburn, USA); host or cells: pooled human liver microsomes. Here is the method:
(§1) To assess the CYP inhibition profiling of ammoxetine, a high-throughput assay based on the cocktail-substrate method was performed, as described in the literature ([Kim et al., 2005]; [Kozakai et al., 2014]). Microsomal incubations were conducted in triplicate for 30 min at 37°C in a reaction system (200 μL) consisting of […] potassium phosphate buffer (pH 7.4), 0.5 mg/mL HLM, 1 mmol/L NADPH, and a cocktail of 10 probe substrates for 9 CYP isoforms. The final concentration of each CYP-specific substrate was chosen to be close to the Michaelis-Menten constant (K m ) value of the respective substrate ([Kim et al., 2005]; [Lee et al., 2024]). For instance, phenacetin (CYP 1A2) was used at a concentration of 50 μmol/L, coumarin (CYP 2A6) at 5 μmol/L, bupropion (CYP 2B6) at 50 μmol/L, amodiaquine (CYP 2C8) at 5 μmol/L, tolbutamide (CYP 2C9) at 100 μmol/L, S-mephenytoin (CYP 2C19) at 100 μmol/L, dextromethorphan (CYP 2D6) at 5 μmol/L, chlorzoxazone (CYP 2E1) at 50 μmol/L, and testosterone and midazolam (CYP 3A4) at 50 μmol/L. Ammoxetine was evaluated at five concentrations: 0.1, 1, 10, 50, and 100 μmol/L. Additionally, a blank control without ammoxetine was included. The incubation was terminated by adding an equal volume of ice-cold acetonitrile/methanol (1:1, v/v) along with the IS, dexmedetomidine (1 ng/mL). After a 20-fold dilution, the mixture was centrifuged at 13,800×g for 10 min at 4°C. The supernatants were used to measure the levels of metabolites from the respective probe substrates using an LC-MS-MS method. The half-maximal inhibitory concentration (IC50) values were subsequently calculated.

In a further series the target is CYP 3A4 (Homo sapiens, UniProt P08684). The series can be described thus: CYP inhibition, cocktail-substrate method in HLM. To be noted: probes testosterone and midazolam. Set-up: 0.5 mg/mL HLM, 1 mmol/L NADPH, and a cocktail of 10 probe substrates for 9 CYP isoforms; tissue BD (Woburn, USA); host or cells: pooled human liver microsomes. The format is in vitro ADME. Here is the method: as §1

The target in series [2] is T1, CYP 2C19. As to the kind of experiment: CYP inhibition, cocktail-substrate method in HLM. Format: in vitro ADME. More on the design: 0.5 mg/mL HLM, 1 mmol/L NADPH, and a cocktail of 10 probe substrates for 9 CYP isoforms; tissue BD (Woburn, USA); host or cells: pooled human liver microsomes. To be noted: probe S-mephenytoin. Here is the method:
as §1

Another series deals with CYP 2C9 (Homo sapiens, UniProt P11712). As to the kind of experiment: CYP inhibition, cocktail-substrate method in HLM. The format is in vitro ADME. More on the design: 0.5 mg/mL HLM, 1 mmol/L NADPH, and a cocktail of 10 probe substrates for 9 CYP isoforms; tissue BD (Woburn, USA); host or cells: pooled human liver microsomes. To be noted: probe tolbutamide. Here is the method: as §1

Series [3] can be described thus: PPB assay by ultrafiltration, dog plasma. The format is in vitro ADME, beagle dogs. To be noted: beagle. Here is the method: (§2) The PPB of ammoxetine was determined using the ultrafiltration method. Triplicate samples of rat, dog, or human plasma were spiked with ammoxetine at three final concentrations (50, 150, and 450 ng/mL). The spiked plasma samples were then incubated in a 37°C air-bath shaker for 1 h until equilibrium was reached. After incubation, 400 μL of the plasma samples were transferred to pre-saturated ultrafiltration devices. These devices were subsequently centrifuged at 13,800×g and 20°C for 20 min to separate the unbound ammoxetine. 100 μL of the test samples were taken and mixed with 100 μL of the IS, L-phencynonate (50 ng/mL), and 300 μL of methanol. Following centrifugation at 13,800×g for 10 min, the supernatants were used to determine the total and free concentrations of ammoxetine in the plasma (C t , C f ) using an LC-MS-MS method. The PPB rate (%) of ammoxetine was calculated by dividing (C t −C f ) by C t .

The nature of series [4]: PPB assay by ultrafiltration, rat plasma. The format is in vitro ADME, rats. Here is the method: as §2
On the set-up of series [5]: method as in Xue et al., 2017. To be noted: citric acid/phosphate buffer (pH 2); ref Xue et al., 2017; cited from earlier work.
Where [6] appears, read: 50 ng/mL, read-out: Percentage of ammoxetine-protein binding rate (%) (converted).
[7] abbreviates: 150 ng/mL, read-out: Percentage of ammoxetine-protein binding rate (%) (converted).
The mark [8] stands for this setting: 450 ng/mL, read-out: Percentage of ammoxetine-protein binding rate (%) (converted).
The mark [9] stands for this setting: approximate range over 50-450 ng/mL, read-out: PPB rate.

Each structure is given as a SMILES string. Where “and” joins values, the source holds several entries; their conditions need not be identical. Equal entries are not always repeated. Bounds are passed on as bounds.

T1 sequence (P33261 whole entry): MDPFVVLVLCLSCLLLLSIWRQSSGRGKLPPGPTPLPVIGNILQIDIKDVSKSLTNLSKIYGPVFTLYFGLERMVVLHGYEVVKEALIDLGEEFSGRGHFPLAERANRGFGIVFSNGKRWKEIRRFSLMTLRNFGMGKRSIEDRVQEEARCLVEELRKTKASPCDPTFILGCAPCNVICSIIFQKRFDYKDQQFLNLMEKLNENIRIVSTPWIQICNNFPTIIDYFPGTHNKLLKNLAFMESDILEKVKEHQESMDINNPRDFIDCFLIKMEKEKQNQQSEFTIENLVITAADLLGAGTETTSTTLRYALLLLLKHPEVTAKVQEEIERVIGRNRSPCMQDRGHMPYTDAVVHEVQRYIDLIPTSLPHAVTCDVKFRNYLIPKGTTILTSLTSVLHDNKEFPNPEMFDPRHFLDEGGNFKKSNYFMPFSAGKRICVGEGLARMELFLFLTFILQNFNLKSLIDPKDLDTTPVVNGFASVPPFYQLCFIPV
Chain of CYP 2D6 (P10635 whole entry, canonical isoform): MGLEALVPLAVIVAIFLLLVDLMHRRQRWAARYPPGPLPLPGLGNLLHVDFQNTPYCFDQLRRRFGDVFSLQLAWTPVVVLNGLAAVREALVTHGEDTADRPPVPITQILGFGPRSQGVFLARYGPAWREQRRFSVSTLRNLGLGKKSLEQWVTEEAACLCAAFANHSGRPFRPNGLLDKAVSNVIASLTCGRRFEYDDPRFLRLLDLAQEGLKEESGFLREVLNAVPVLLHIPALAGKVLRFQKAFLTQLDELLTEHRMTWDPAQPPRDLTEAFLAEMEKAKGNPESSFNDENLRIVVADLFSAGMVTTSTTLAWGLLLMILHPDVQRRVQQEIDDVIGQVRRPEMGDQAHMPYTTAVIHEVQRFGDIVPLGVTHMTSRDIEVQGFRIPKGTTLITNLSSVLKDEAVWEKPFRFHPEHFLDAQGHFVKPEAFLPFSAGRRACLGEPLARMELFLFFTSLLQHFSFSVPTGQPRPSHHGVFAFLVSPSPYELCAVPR
Chain of CYP 2C9 (P11712 whole entry, canonical isoform): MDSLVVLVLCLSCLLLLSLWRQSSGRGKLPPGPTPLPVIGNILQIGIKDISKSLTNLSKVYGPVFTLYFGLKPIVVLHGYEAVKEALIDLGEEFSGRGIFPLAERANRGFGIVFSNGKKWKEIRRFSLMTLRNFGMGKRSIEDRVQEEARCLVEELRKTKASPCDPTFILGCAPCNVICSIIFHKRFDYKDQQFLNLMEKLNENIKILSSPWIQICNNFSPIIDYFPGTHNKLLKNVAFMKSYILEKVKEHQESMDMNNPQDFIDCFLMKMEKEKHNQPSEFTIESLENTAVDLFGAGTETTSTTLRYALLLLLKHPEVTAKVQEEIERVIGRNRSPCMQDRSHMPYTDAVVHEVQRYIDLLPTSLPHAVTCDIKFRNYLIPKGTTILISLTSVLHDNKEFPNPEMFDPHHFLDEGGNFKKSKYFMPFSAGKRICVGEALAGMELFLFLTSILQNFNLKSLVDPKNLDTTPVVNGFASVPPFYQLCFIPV
Chain of CYP 3A4 (P08684 whole entry, canonical isoform): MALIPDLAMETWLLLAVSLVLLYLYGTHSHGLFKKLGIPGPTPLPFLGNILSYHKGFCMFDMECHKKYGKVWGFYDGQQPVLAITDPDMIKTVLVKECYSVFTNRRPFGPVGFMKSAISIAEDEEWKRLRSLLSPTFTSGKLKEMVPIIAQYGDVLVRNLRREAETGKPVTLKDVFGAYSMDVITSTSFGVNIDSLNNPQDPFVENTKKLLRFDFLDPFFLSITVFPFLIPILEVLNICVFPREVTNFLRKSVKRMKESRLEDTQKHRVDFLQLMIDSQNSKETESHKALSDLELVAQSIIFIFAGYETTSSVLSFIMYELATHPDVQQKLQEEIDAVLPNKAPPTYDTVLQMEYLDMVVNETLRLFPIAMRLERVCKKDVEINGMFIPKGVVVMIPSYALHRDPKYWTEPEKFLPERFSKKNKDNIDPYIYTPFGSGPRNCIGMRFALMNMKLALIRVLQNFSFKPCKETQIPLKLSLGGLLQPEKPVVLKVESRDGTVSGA

By IC50 is commonly meant the midpoint of a concentration-inhibition curve. Low values mean greater potency in that assay, high ones weaker potency in that assay. Take `CNCC[C@H](Oc1cccc2c1OCO2)c1cccs1` [ammoxetine]: the Transformation ratio% on CYP 2C19 [1] was 26.27±1.85% and 26.27%. In addition, the “residuary concentration of ammoxetine, Mean±SD” value at CYP 2C19 [1] is reported as 5.05±0.13. Besides, the IC50 is more than 100 µM against CYP 2D6 (HLM, probe dextromethorphan); more than 100 µM against CYP 3A4; more than 100 µM on CYP 2C19 [2]; more than 100 µM on CYP 2C9. Besides, at CYP 2D6 (ammoxetine 100 μmol/L), the “probe substrate levels, % of the original blank group” value is “approximately 65.86%”. Moreover, the fraction unbound at 1 h, 50 ng/mL was 0.464 in series [3] (setting [6]) and 0.338 in series [4] (setting [6]). Further, the fraction unbound at 1 h, 150 ng/mL in series [3] (setting [7]) was 0.468; in series [4] (setting [7]) it was 0.447. The values for the fraction unbound at 1 h, 450 ng/mL in series [3] (setting [8]) and in series [4] (setting [8]) were 0.423 and 0.506, respectively. Besides, the fraction unbound at 1 h in series [3] (setting [9]) and in series [4] (setting [9]) was 0.4 to 0.5 in each case. For the same compound, the stability in buffer result in series [5] is given as “instability”.
